Test results as given in the supplement of paper PMC10307832.

What was measured:
Experiment in all cases: relative viability (nuclei count vs DMSO), 5 days (fraction); higher = more cells survive
Tipifarnib + Trametinib = compound: Cn1cncc1[C@@](N)(c1ccc(Cl)cc1)c1ccc2c(c1)c(-c1cccc(Cl)c1)cc(=O)n2C [Tipifarnib] + CC(=O)Nc1cccc(-n2c(=O)n(C3CC3)c(=O)c3c(Nc4ccc(I)cc4F)n(C)c(=O)c(C)c32)c1 [Trametinib] (partner 0.02 µM)
Method in brief: (§1)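 Lung cancer cell lines were pin-tool dosed in 1536-well plates on the day after seeding, with either a lone drug or a fixed anchor-drug dose plus five library-drug doses (not always all listed) in √10 steps. Nuclei were counted on 4× images after 5 days. Relative viability is the ratio of treated-well to vehicle-well nuclei counts, with each value a median of duplicate plates.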

Tipifarnib + Crizotinib = compound: Cn1cncc1[C@@](N)(c1ccc(Cl)cc1)c1ccc2c(c1)c(-c1cccc(Cl)c1)cc(=O)n2C [Tipifarnib] + C[C@@H](Oc1cc(-c2cnn(C3CCNCC3)c2)cnc1N)c1c(Cl)ccc(F)c1Cl [Crizotinib] (partner 1 µM)
Method in brief: as §1

Tipifarnib + Phenformin = compound: Cn1cncc1[C@@](N)(c1ccc(Cl)cc1)c1ccc2c(c1)c(-c1cccc(Cl)c1)cc(=O)n2C [Tipifarnib] + N=C(N)NC(=N)NCCc1ccccc1 [Phenformin] (partner 250 µM)
Method in brief: as §1

Tipifarnib + OSI-027 = compound: Cn1cncc1[C@@](N)(c1ccc(Cl)cc1)c1ccc2c(c1)c(-c1cccc(Cl)c1)cc(=O)n2C [Tipifarnib] + COc1cccc2cc(-c3nc([C@H]4CC[C@H](C(=O)O)CC4)n4ncnc(N)c34)[nH]c12 [OSI-027] (partner 0.5 µM)
Method in brief: as §1

Cell Line	relative viability (Tipifarnib + Trametinib; first compound 0.01 µM)	relative viability (Tipifarnib + Trametinib; first compound 0.03162 µM)	relative viability (Tipifarnib + Trametinib; first compound 0.1 µM)	relative viability (Tipifarnib + Trametinib; first compound 0.3162 µM)	relative viability (Tipifarnib + Trametinib; first compound 1 µM)	relative viability (Tipifarnib + Crizotinib; first compound 0.01 µM)	relative viability (Tipifarnib + Crizotinib; first compound 0.03162 µM)	relative viability (Tipifarnib + Crizotinib; first compound 0.1 µM)	relative viability (Tipifarnib + Crizotinib; first compound 0.3162 µM)	relative viability (Tipifarnib + Crizotinib; first compound 1 µM)	relative viability (Tipifarnib + Phenformin; first compound 0.01 µM)	relative viability (Tipifarnib + Phenformin; first compound 0.03162 µM)	relative viability (Tipifarnib + Phenformin; first compound 0.1 µM)	relative viability (Tipifarnib + Phenformin; first compound 0.3162 µM)	relative viability (Tipifarnib + Phenformin; first compound 1 µM)	relative viability (Tipifarnib + OSI-027; first compound 0.01 µM)	relative viability (Tipifarnib + OSI-027; first compound 0.03162 µM)	relative viability (Tipifarnib + OSI-027; first compound 0.1 µM)	relative viability (Tipifarnib + OSI-027; first compound 0.3162 µM)	relative viability (Tipifarnib + OSI-027; first compound 1 µM)
NCI-H1734	0.66	0.555	0.556	0.478	0.407	0.802	0.589	0.425	0.444	0.352	0.391	0.352	0.373	0.251	0.275	0.581	0.444	0.463	0.316	0.365
NCI-H1755	0.793	0.732	0.718	0.723	0.714	0.83	0.79	0.818	0.742	0.688	0.703	0.594	0.564	0.577	0.418	0.75	0.603	0.677	0.622	0.452
NCI-H1792	0.409	0.241	0.246	0.242	0.239	1.02	0.888	0.742	0.54	0.438	–	–	0.125	0.0695	0.114	0.9	0.76	0.548	0.32	0.357
NCI-H1915	0.298	0.269	0.214	0.201	0.195	0.7	0.684	0.431	0.405	0.425	0.383	0.359	0.341	0.267	0.236	0.445	0.357	0.399	0.325	0.288
NCI-H1944	0.438	0.371	0.348	0.297	0.302	1.12	0.92	0.624	0.568	0.609	0.207	0.194	0.163	0.155	0.168	0.419	0.324	0.307	0.247	0.263
NCI-H1975	0.316	0.272	0.337	0.252	0.288	0.93	0.989	0.717	0.566	0.49	0.435	0.403	0.413	0.347	0.274	0.788	0.701	0.567	0.318	0.31
NCI-H1993	0.575	0.476	0.485	0.594	0.61	0.77	0.749	0.617	0.595	0.661	0.414	0.508	0.529	0.518	0.559	0.469	0.613	0.531	0.644	0.604
NCI-H2009	0.265	0.21	0.192	0.183	0.185	0.994	1.01	0.789	0.563	0.578	0.525	0.492	0.388	0.386	0.352	0.659	0.362	0.335	0.299	0.245
